Source: paper PMC9983021, “Novel GluN2B-Selective NMDA Receptor Negative Allosteric Modulator Possesses Intrinsic Analgesic Properties and Enhances Analgesia of Morphine in a Rodent Tail Flick Pain Model” (ACS Chemical Neuroscience, 2023)

Columns and labels:
[1] = system: C57BL/6J mice; assay: Hot water tail immersion test, compound alone (intrinsic antinociception); assay type: in vivo; settings: for effect on tail flick latency vs vehicle / mean latency increase: i.p. 30 min prior to test; for effect on tail flick latency vs vehicle: n = 8 per group; for dose at which significant increase in latency was achieved / dose at which significant latency increases were achieved: i.p.; for dose at which significant latency increases were achieved: lowest significant dose
Text: After evaluating EU93-108 in vitro, we next evaluated a panel of GluN2B inhibitors for their ability to produce an antinociceptive effect using a classical model of pain perception, determination of tail flick latency for mice when their tails are placed in hot water (Figures 4 and 5). The hot water tail immersion test is a well-validated method of assessing reflexive (i.e., spinal) pain-like response in rodents.[80]−[83] We interpret a drug-induced increase in tail flick latency as analgesia.
The inhibitors were injected i.p. 30 min prior to a hot water tail immersion test. Four treatment groups and one control group were used (n = 8 per group) where the control group received vehicle (10% DMSO, 20% PEG, 2% DMA in water) and groups 1 through 4 were randomly assigned one dose of the appropriate compound.
All animal studies performed at Emory have been approved by the Institutional Animal Care and Use Committee at Emory University. Male and female C57BL/6J mice weighing between 20 and 30 g were housed five per cage and given ad libitum access to food and water. The mice were 8–10 weeks of age at the time of experimentation. Animal holding rooms operated on a 12 h dark/light cycle with the dark cycle from 7:00 pm to 7:00 am. Mice were allowed to acclimate in cages for one week after arrival. The mice were handled regularly and habituated to scruffing and cloth restraint for 3–5 days prior to experimentation.
Mouse weights were recorded on the day of each experiment. Mice were given the appropriate treatment(s) 30 min prior to testing. All injection volumes were 10 mL/kg (e.g., 350 μL for a 35 g mouse). For the tail immersion experiments, each mouse was restrained with a Wypall cloth, leaving the tail exposed. The distal two-thirds of the tail was lowered into a sous vide water bath set to 48 °C, and a stopwatch with a resolution of 0.01 s was used to record the time elapsed between immersion and tail flick. Three recordings were taken for each mouse, and each data point is expressed as the mean of the three recordings. A cut-off time of 25 s was implemented to prevent tissue damage or scarring. For each experiment, the identities of the doses were coded by an independent researcher to ensure blinding. The identities were not decoded until the data were analyzed.
(§1) Prism 9.3.1 software (GraphPad, San Diego, CA) was used for all data analysis and visualization. Data for intrinsic antinociception was analyzed using one-way ANOVA and Dunnett’s post hoc test for multiple comparisons where each group was compared to vehicle. Data for acute morphine potentiation experiments were analyzed using one-way ANOVA and Tukey’s post hoc test for multiple comparisons was also used, where each group mean was compared to the mean of every other group. Data for tolerance experiments were analyzed using repeated measures two-way ANOVA and Bonferroni post hoc analysis. Data are presented as mean ± SEM and p < 0.05 constitutes significance.

[2] = system: C57BL/6J mice; assay: Preestablished morphine tolerance (tolerant mice, tail immersion test); assay type: in vivo; settings: co-administered with morphine; males 10 mg/kg, females 20 mg/kg i.p.
Text: We next wanted to assess EU93-108 for effects on other facets of tolerance. Specifically, we were interested in whether EU93-108 could increase tail flick latency in mice that were already tolerant to morphine (i.e., preestablished tolerance). To assess the effect of EU93-108 on preestablished tolerance, five groups were used (n = 8 per group): vehicle/saline, vehicle/morphine, ifenprodil/morphine, EU93-108/saline, and EU93-108/morphine. All groups except for the vehicle/saline control group were administered morphine three times per day (according to the stair stepping protocol outlined in Figure 11) at gradually increasing doses from 25 to 40 mg/kg three times a day at 3–4 h intervals for three consecutive days until tolerance was observed on day 4 (Figure 12, black circles).
Figure 11 Dosing regimen to assess effects of EU93-108 on tolerant mice. TIT = tail immersion test. All mice received morphine or saline three times a day according to the protocol in Figure 9. Doses of morphine are shown above the arrows, in mg/kg. Once tolerance was established on day 4, the mice were randomly assigned to receive vehicle, EU93-108, or ifenprodil once a day for two consecutive days. […]
Mouse weights were recorded on the day of each experiment. […] Three recordings were taken for each mouse, and each data point is expressed as the mean of the three recordings. […] The identities were not decoded until the data were analyzed.
as §1, with “Data are presented as mean ± SEM and p < 0.05 constitutes significance.” left out

SMILES	effect on tail flick latency vs vehicle ([1]; female mice)	effect on tail flick latency vs vehicle ([1]; male mice)	tail flick latency in morphine-tolerant mice, day 5 vs day 4 [2]	dose at which significant increase in latency was achieved ([1]; female mice)	mean latency increase ([1]; male mice)	dose at which significant latency increases were achieved ([1]; male mice)	ED50 ([1]; Mus musculus, sc, 0.5 h, read-out: ED50 (tail flick latency), morphine dose-response curve)
C[C@H](CN1CCC(Cc2ccccc2)CC1)[C@H](O)c1ccc(O)cc1 [Ro25-6981, reference compound]	did not produce any significant increases in latency at the doses tested	did not display significant increases in latency at the doses tested	–	–	–	–	–
CC(C(O)c1ccc(O)cc1)N1CCC(Cc2ccccc2)CC1 (stereo not shown) [ifenprodil, reference compound]	did not produce any significant increases in latency at the doses tested	did not display significant increases in latency at the doses tested	continued to decrease on day 5	–	–	–	–
CS(=O)(=O)Nc1ccc(OC[C@@H](O)CNCCc2ccc(Cl)c(Cl)c2)cc1 [EU93-4]	significant increases in latency at the highest doses tested	significant increases in tail flick latency at 50 mg/kg	–	50 mg/kg	10 s	50 mg/kg	–
CCCCN(CCc1ccc(Cl)c(Cl)c1)C[C@H](O)COc1ccc(NS(C)(=O)=O)cc1 [EU93-31]	significant increases in latency at the highest doses tested	significant increases in latency at the two highest doses tested (50 and 100 mg/kg)	–	100 mg/kg	10 s	50 mg/kg	–
CN1CC[C@]23c4c5ccc(O)c4O[C@H]2[C@@H](O)C=C[C@H]3[C@H]1C5 [Morphine]	–	–	–	–	–	–	5.15 mg/kg
